Results reported in patent US8426403B2, “Gamma secretase modulators” (priority 2007, dated 2013).

Tested on: Aβ42
Experiment: Secretase Reaction and Aβ Analysis in Whole Cells (total Aβ, Aβ40, Aβ42 by ECL sandwich immunoassay)
Assay type: cell-based
Conditions: HEK293 cells overexpressing APP with Swedish and London mutations
Method: Secretase Reaction and Aβ Analysis in Whole Cells: HEK293 cells overexpressing APP with Swedish and London mutations were treated with the specified compounds for 5 hour at 37° C. in […] of DMEM medium containing 10% fetal bovine serum. At the end of the incubation, total Aβ, Aβ40 and Aβ42 were measured using electrochemiluminescence (ECL) based sandwich immunoassays. Total Aβ was determined using a pair of antibodies TAG-WO2 and biotin-4G8, Aβ40 was identified with antibody pairs TAG-G2-10 and biotin-4G8, while Aβ42 was identified with TAG-G2-11 and biotin-4G8. The ECL signal was measured using Sector Imager 2400 (Meso Scale Discovery).

IC50 (Homo sapiens, 5 hour at 37° C., ECL sandwich immunoassay, read-out: Ab42 IC50): 1.11 µM
SMILES: COc1cc(/C=C/C2=NC(=O)C(C)(c3ccc(F)cc3)N2)ccc1-n1cnc(C)c1 (centres unmarked) [Compound G4]
Abtotal/Ab42 selectivity (total Aβ versus Aβ42): 11 fold
